Test results taken from the NIST ThermoML archive (doi:10.1021/je034188o).
± gives the expanded uncertainty stated by the source.

Assay: cn = amount concentration of the nth substance listed, in mol/dm3
Details: 101 kPa, Liquid

C1COCCOCCOCCOCCOCCO1 [1,4,7,10,13,16-hexaoxacyclooctadecane] + ClC(Cl)(Cl)Cl
mass density (293.15 K, c1 = 0.06567): 1586.34 ± 1.9 kg/m3 | mass density (293.15 K, c1 = 0.09829): 1582.87 ± 1.9 kg/m3 | mass density (293.15 K, c1 = 0.1283): 1579.71 ± 1.9 kg/m3 | mass density (293.15 K, c1 = 0.1856): 1573.71 ± 1.9 kg/m3 | mass density (293.15 K, c1 = 0.2464): 1567.44 ± 1.9 kg/m3 | mass density (293.15 K, c1 = 0.3256): 1559.42 ± 1.8 kg/m3 | mass density (298.15 K, c1 = 0.06528): 1576.94 ± 1.9 kg/m3 | mass density (298.15 K, c1 = 0.09771): 1573.63 ± 1.9 kg/m3 | mass density (298.15 K, c1 = 0.1275): 1570.6 ± 1.9 kg/m3 | mass density (298.15 K, c1 = 0.1846): 1564.86 ± 1.9 kg/m3 | mass density (298.15 K, c1 = 0.2451): 1558.88 ± 1.8 kg/m3 | mass density (298.15 K, c1 = 0.3239): 1551.22 ± 1.8 kg/m3 | mass density (303.15 K, c1 = 0.0649): 1567.64 ± 1.9 kg/m3 | mass density (303.15 K, c1 = 0.09714): 1564.39 ± 1.9 kg/m3 | mass density (303.15 K, c1 = 0.1268): 1561.42 ± 1.9 kg/m3 | mass density (303.15 K, c1 = 0.1835): 1555.75 ± 1.9 kg/m3 | mass density (303.15 K, c1 = 0.2436): 1549.77 ± 1.8 kg/m3 | mass density (303.15 K, c1 = 0.322): 1542.04 ± 1.8 kg/m3 | mass density (308.15 K, c1 = 0.06453): 1558.35 ± 1.9 kg/m3 | mass density (308.15 K, c1 = 0.09662): 1555.25 ± 1.9 kg/m3 | mass density (308.15 K, c1 = 0.1261): 1552.41 ± 1.9 kg/m3 | mass density (308.15 K, c1 = 0.1827): 1547.01 ± 1.8 kg/m3 | mass density (308.15 K, c1 = 0.2426): 1541.36 ± 1.8 kg/m3 | mass density (308.15 K, c1 = 0.3209): 1534.08 ± 1.8 kg/m3

C1COCCOCCOCCOCCOCCO1 [1,4,7,10,13,16-hexaoxacyclooctadecane] + O
mass density (293.15 K, c1 = 0.0406): 999.92 ± 0.26 kg/m3 | mass density (293.15 K, c1 = 0.07841): 1001.5 ± 0.26 kg/m3 | mass density (293.15 K, c1 = 0.1209): 1003.25 ± 0.27 kg/m3 | mass density (293.15 K, c1 = 0.1782): 1005.57 ± 0.28 kg/m3 | mass density (293.15 K, c1 = 0.2079): 1006.75 ± 0.28 kg/m3 | mass density (293.15 K, c1 = 0.2528): 1008.52 ± 0.29 kg/m3 | mass density (293.15 K, c1 = 0.3203): 1011.12 ± 0.3 kg/m3 | mass density (298.15 K, c1 = 0.04054): 998.67 ± 0.26 kg/m3 | mass density (298.15 K, c1 = 0.07831): 1000.21 ± 0.26 kg/m3 | mass density (298.15 K, c1 = 0.1207): 1001.91 ± 0.27 kg/m3 | mass density (298.15 K, c1 = 0.1779): 1004.16 ± 0.27 kg/m3 | mass density (298.15 K, c1 = 0.2076): 1005.32 ± 0.28 kg/m3 | mass density (298.15 K, c1 = 0.2524): 1007.03 ± 0.28 kg/m3 | mass density (298.15 K, c1 = 0.3198): 1009.57 ± 0.29 kg/m3 | mass density (303.15 K, c1 = 0.04049): 997.39 ± 0.27 kg/m3 | mass density (303.15 K, c1 = 0.0782): 998.84 ± 0.26 kg/m3 | mass density (303.15 K, c1 = 0.1205): 1000.51 ± 0.26 kg/m3 | mass density (303.15 K, c1 = 0.1777): 1002.72 ± 0.27 kg/m3 | mass density (303.15 K, c1 = 0.2073): 1003.84 ± 0.27 kg/m3 | mass density (303.15 K, c1 = 0.252): 1005.51 ± 0.28 kg/m3 | mass density (303.15 K, c1 = 0.3193): 1008 ± 0.29 kg/m3 | mass density (308.15 K, c1 = 0.04042): 995.61 ± 0.27 kg/m3 | mass density (308.15 K, c1 = 0.07806): 997.09 ± 0.27 kg/m3 | mass density (308.15 K, c1 = 0.1203): 998.72 ± 0.26 kg/m3 | mass density (308.15 K, c1 = 0.1774): 1000.89 ± 0.26 kg/m3 | mass density (308.15 K, c1 = 0.2069): 1001.99 ± 0.27 kg/m3 | mass density (308.15 K, c1 = 0.2515): 1003.65 ± 0.27 kg/m3 | mass density (308.15 K, c1 = 0.3187): 1006.08 ± 0.28 kg/m3

ClC(Cl)(Cl)Cl [tetrachloromethane] + C1COCCOCCOCCOCCOCCO1
mass density (293.15 K, c2 = 0): 1593.39 ± 1.9 kg/m3 | mass density (298.15 K, c2 = 0): 1583.71 ± 1.9 kg/m3 | mass density (303.15 K, c2 = 0): 1574.2 ± 1.9 kg/m3 | mass density (308.15 K, c2 = 0): 1564.65 ± 1.9 kg/m3
